Entries after “also recorded” stand apart in the source; their conditions may differ.
Target: Keap1 (Kelch domain) (Homo sapiens, UniProt Q14145)
Settings: SAR discussion

Sequence of Keap1 (Kelch domain) (Q14145 321-609): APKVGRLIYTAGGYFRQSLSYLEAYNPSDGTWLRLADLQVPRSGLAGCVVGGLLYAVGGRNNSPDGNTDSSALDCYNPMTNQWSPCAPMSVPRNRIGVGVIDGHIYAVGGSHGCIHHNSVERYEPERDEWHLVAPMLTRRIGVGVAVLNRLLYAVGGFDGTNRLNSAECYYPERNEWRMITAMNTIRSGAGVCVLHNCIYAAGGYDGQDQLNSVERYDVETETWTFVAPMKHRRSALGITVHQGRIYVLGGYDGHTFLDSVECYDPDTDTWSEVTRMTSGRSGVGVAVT

Row | SMILES | Activity in fluorescence anisotropy assay (in words)
1 | COc1ccc(S(=O)(=O)Nc2cccc3ccccc23)cc1 [Compound 17, 4-methoxy-N-(naphthalen-1-yl)benzenesulfonamide] | inactive
2 | COc1ccc(S(=O)(=O)N(CC(=O)O)c2cccc3ccccc23)cc1 [Compound 18, N-((4-methoxyphenyl)sulfonyl)-N-(naphthalen-1-yl)glycine] | inactive
3 | COc1ccc(S(=O)(=O)Nc2cc(NS(=O)(=O)c3ccc(OC)cc3)c3ccccc3c2)cc1 [Compound 19, N,N′-(naphthalene-1,3-diyl)bis(4-methoxybenzenesulfonamide)] | loss of activity
4 | COc1ccc(S(=O)(=O)Nc2cc3ccccc3cc2NS(=O)(=O)c2ccc(OC)cc2)cc1 [Compound 20, N,N′-(naphthalene-2,3-diyl)bis(4-methoxybenzenesulfonamide)] | loss of activity
5 | COc1ccc(S(=O)(=O)N(CC(N)=O)c2cc(N(CC(N)=O)S(=O)(=O)c3ccc(OC)cc3)c3ccccc3c2)cc1 [Compound 21, 2,2′-(naphthalene-1,3-diylbis(((4-methoxyphenyl)sulfonyl)azanediyl))diacetamide] | loss of activity; also recorded: inactive
6 | COc1ccc(S(=O)(=O)N(CC(=O)O)c2cc(N(CC(=O)O)S(=O)(=O)c3ccc(OC)cc3)c3ccccc3c2)cc1 [Compound 22, 2,2′-(naphthalene-1,3-diylbis(((4-methoxyphenyl)sulfonyl)azanediyl))acetic acid] | loss of activity
7 | COc1ccc(S(=O)(=O)Nc2cc3ccccc3cc2N(CC(N)=O)S(=O)(=O)c2ccc(OC)cc2)cc1 [Compound 23, 2-(naphthalene-2,3-diylbis(((4-methoxyphenyl)sulfonyl)azanediyl))acetamide] | loss of activity; also recorded: inactive

The next lines start with the values.

Row | Activity in fluorescence anisotropy assay (in words) | SMILES
8 | inactive | O=S(=O)(Nc1ccc(NS(=O)(=O)c2ccccc2)c2ccccc12)c1ccccc1 [Compound 11a, N,N′-(naphthalene-1,4-diyl)dibenzenesulfonamide]
9 | inactive | O=C(O)c1cccc(S(=O)(=O)Nc2ccc(NS(=O)(=O)c3cccc(C(=O)O)c3)c3ccccc23)c1 [Compound 11d, 3,3′-(((4-(hydrosulfonylamino)naphthalen-1-yl)amino)sulfonyl)dibenzoic acid]
10 | inactive | O=S(=O)(Nc1ccc(NS(=O)(=O)c2cccc(C(F)(F)F)c2)c2ccccc12)c1cccc(C(F)(F)F)c1 [Compound 11f, N,N′-(naphthalene-1,4-diyl)bis(3-trifluoromethylbenzenesulfonamide)]
